pIC50: −log10 of the molar value.

One may read the pIC50 as the IC50 on a negative log10 scale, so that one unit is a factor of ten.

The target in data set [1] is ACSS2 (Homo sapiens (Human), UniProt Q9NR19). Briefly: Cellular assay of 14C acetate incorporation into fatty acids (IC50 ACSS2 cellular lipids). Format: cell-based. Conditions: HCT-15 cells. The protocol:
Cellular Assay of ^14C Acetate Incorporation into Fatty Acids (IC50 ACSS2 Cellular Lipids)
This protocol describes a cellular assay capable to quantify endogenous fatty acid synthesis activity in the human HCT-15 cancer cell line following the incorporation of extracellularly administered radiolabeled ^14C acetate with a scintillation proximity based read out on extracted fatty acids.
HCT-15 cells were grown in RPMI 1640 (Gibco) supplemented with 2 mM glutamine, 1 mM sodium pyruvate 10 mM HEPES and 10% FCS (heat-inactivated) passaged every 2-3 days to remain a subconfluent, vital culture. A working cell bank was prepared with each aliquot containing 1×10^7 viable cells. After thawing, these cells are dilute immediately 1:20 in pre-warmed (37° C.) culture medium. Cells are collected by centrifugation at 200×g for 5 min, and the supernatant is replaced by 30 mL of fresh culture medium per aliquot to obtain a cell suspension containing 350000 cells/ml. From this cell suspension 100 μL are dispersed into each well of a collagen coated 96 well plate, (black, clear bottom, PS, F-bottom, Greiner) and culture for 24 h (37° C., 5% CO2). After incubation the culture medium is removed and the wells are washed once with 100 μL PBS++(supplemented with Mg^2+/Ca^2+, Gibco) and 50 μL assay medium (RPMI 1640+10 mM HEPES) are added to each well. Compounds serial dilutions are prepared from 10 mM stock solutions in DMSO using a fixed dilution factor (usually 1:3). After preparation of the dilution series in DMSO, the individual dilutions are further diluted in the assay medium. This working dilution is prepared such, that the concentration is 7× of the final concentration in the assay. The maximal DMSO concentration in the final assay is 0.1%.
To each well 10 μL compound working dilution or DMSO blank are added and the cells are cultured for 2 h (37° C., 5% CO2). Then 10 μL AlamarBlue reagent (Invitrogen) containing 14 μCi/mL 14C-acetate (Perkin Elmer) are added to each well (70 μl total volume) and cells are again cultured for 2 h. Cell viability is verified by measuring the AlamarBlue fluorescence (Tecan Safire, ex: 544 nm/em: 590 nm). After incubation the culture medium is removed and the wells are carefully washed once with cold 100 μL PBS++. For cell lysis and fatty acid recovery 50 μl 0.1 M NaOH and 0.1% Triton-X100 are added per well. The plate is sealed with PlateLoc (clear peelable heat seal, Agilent) and incubate at 70° C. for 16-24 h. After cooling to room temperature, the plates are centrifuged for 1 min at 1000 rpm and the plate seals are removed. For acidification 150 μL 0.1 M HCl are added to each well, mixed and 150 μL of the mixture are transferred into a 96 well FlashPlate (Perkin Elmer). The plates are sealed with TopSeal-A (Perkin Elmer). To allow for the fatty acid binding to the well surfaces the plates are incubate for 4 h at 70° C. After cooling to room temperature, the plates are centrifuged for 1 min at 1000 rpm and stored for 0.5-2h at room temperature in the dark. Radioactivity from ^14C incorporation into fatty acids in the wells is measured as CPM count in a MicroBeta scintillation counter (Perkin Elmer).

The subject of data set [2] is CYP3A4. Briefly: CYP-induction assay in HepaRG cells, QuantiGene Plex 2.0 (CYP3A4 induction). Type of data set: in vitro ADME, human. Conditions: 48 hrs; for CYP3A4 (in parentheses: lowest concentration causing at least 2-fold induction): value in parentheses; for CYP3A4 (significant induction above 20% threshold): value outside parentheses. The source says: CYP-Induction Assay in HepaRG Cells with the QuantiGene Plex 2.0 Reagent System (Branched DNA-Assay) from Affymetrix (Thermo Scientific) (CYP3A4 Induction)
The QuantiGene Plex 2.0 assay combines branched DNA (bDNA) signal amplification and multi-analyte profiling beads (xMAP®) technologies to enable the detection and quantitation of multiple RNA targets simultaneously. The xMAP system combines a flow cytometer, fluorescent-dyed microspheres (beads), lasers and digital signal processing to allow multiplexing of up to 100 unique assays within a single sample.
Human HepaRG cells (Thermo Scientific) were thawed and seeded with a density of 0.72E6 cells/ml in a collagen precoated 96-well plate. After an adaption phase of 3 days in first Williams E medium (Gibco+thawing supplement, Thermo Scientific) the medium was changed to second Williams E medium (Gibco+tox supplement, Thermo Scientific). Daily treatment with test substances at 4 concentrations, started between day 3-10 of culturing, was performed with an incubation time of 48 hrs. After 48 hrs the cells were lysed with 100 μl/well (Lysis mixture, Affymetrix diluted 1:2 with Williams E medium, Gibco and addition of 5 μl proteinase K/ml of the mixture, Affymetrix). The QuantiGene Plex 2.0 assay utilizes fluorescent capture beads to trap specific RNA molecules. In order to hybridize and span contiguous sequences of the target RNA, the probe set containing 3 types of synthetic probes (Capture Extenders, Label Extenders, and Blockers) was incubated with samples and beads at 600 rpm at 54° C. for 16-20 h. Signal amplification was mediated by DNA amplification molecules that hybridize to the tails of the label extenders (incubation of the over-night hybridized beads with pre-amplifier and amplifier reagent for 1 h at 50° C. each, washing steps in between). Each amplification unit contains multiple hybridization sites for biotinylated label probes (incubation with label probe reagent for 1 h at 50° C., washing step in between) that bind Streptavidin-conjugated R-Phycoerythrin (SAPE, last incubation step for 30 min at room temp.). After the SAPE incubation, a last washing step with SAPE buffer was performed (120 μl left in wells). The resulting fluorescence signal associated with individual capture beads was detected on a Luminex 200 flow cytometer (parameters: volume 100 μl, timeout 45 sec., DD-gate 5,000-25,000, bead events 50). Signals were reported as median fluorescence intensity (MFI) and were proportional to the number of target RNA molecules present in the sample.
For analysis of results, calculation of mean values of 3 technical replicates as well as the standard deviations (% SD up to 30% acceptable) were carried out. The mean value of the blank was subtracted from the mean value of the sample. As the genes HPRT1 and TFRC are housekeeping genes, they are used to normalize sample mean values [(Sample Mean−Blank)/Housekeeper (Mean−Blank)=normalized value (HPRT1 or TFRC)]. Calculation of the fold-change was performed by dividing normalized sample values by the normalized mean values of the DMSO controls [(Sample Mean−Blank)/Housekeeper (Mean−Blank)=fc; (DMSO Mean−Blank)/Housekeeper (Mean−Blank)].
Experimental data of the compounds shown in Table 1 in the CYP3A4 assay are shown in Table 2 below and given in μM (significant induction above 20% threshold; in parentheses: lowest concentration causing at least 2-fold induction): […]

Chain of ACSS2 (Q9NR19 whole entry): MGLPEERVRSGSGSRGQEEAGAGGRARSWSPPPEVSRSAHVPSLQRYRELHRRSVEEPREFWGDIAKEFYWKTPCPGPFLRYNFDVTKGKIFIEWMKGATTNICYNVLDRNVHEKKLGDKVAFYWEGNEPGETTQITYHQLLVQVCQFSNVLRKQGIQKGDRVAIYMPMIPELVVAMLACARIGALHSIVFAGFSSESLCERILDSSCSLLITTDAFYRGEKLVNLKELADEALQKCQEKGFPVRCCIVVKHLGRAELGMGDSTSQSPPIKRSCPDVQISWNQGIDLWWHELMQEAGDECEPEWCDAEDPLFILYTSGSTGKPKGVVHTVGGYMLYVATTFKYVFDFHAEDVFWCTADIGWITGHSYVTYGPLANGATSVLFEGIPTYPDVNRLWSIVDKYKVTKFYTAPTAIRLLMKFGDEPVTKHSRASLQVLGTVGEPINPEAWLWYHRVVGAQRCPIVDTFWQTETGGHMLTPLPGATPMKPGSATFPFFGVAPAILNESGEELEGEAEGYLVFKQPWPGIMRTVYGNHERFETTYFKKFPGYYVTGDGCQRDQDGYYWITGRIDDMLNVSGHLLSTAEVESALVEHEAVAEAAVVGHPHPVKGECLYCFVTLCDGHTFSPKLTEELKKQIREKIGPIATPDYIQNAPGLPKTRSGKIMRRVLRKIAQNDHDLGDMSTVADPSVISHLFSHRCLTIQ

`CCn1c(C(O)(c2ccccc2)c2cccs2)nc2nc(OC)c(-c3nnn[nH]3)cc21` (racemic) [Compound 35, [1-ethyl-5-methoxy-6-(1H-1,2,3,4-tetrazol-5-yl)-1H-imidazo[4,5-b]pyridin-2-yl](phenyl)(thiophen-2-yl)methanol]: the negative-log IC50 (pIC50) in data set [1] is 9.00 to 11.00.
Turning to `CCn1c(C(O)(c2ccccc2)c2ncccn2)nc2nc(OC)c(-c3nnn[nH]3)cc21` (racemic) [Compound 37, [1-ethyl-5-methoxy-6-(1H-1,2,3,4-tetrazol-5-yl)-1H-imidazo[4,5-b]pyridin-2-yl](phenyl)(pyrimidin-2-yl)methanol], the pIC50 in data set [1] is 8.00 to 9.00.
As to `CCn1c(C(O)(c2ccccc2)c2ccccn2)nc2nc(OC)c(-c3nnn[nH]3)cc21` (racemic) [Compound 50, [1-ethyl-5-methoxy-6-(1H-1,2,3,4-tetrazol-5-yl)-1H-imidazo[4,5-b]pyridin-2-yl](phenyl)(pyridin-2-yl)methanol], the pIC50 in data set [1] was 9.00 to 11.00.
Same read-out and setting: in the case of `CCc1c(C(O)(c2ccccc2)c2ccccn2)nc2cc(OC)c(-c3nnn[nH]3)cn12` (single isomer, unassigned) [Compound 11, [3-Ethyl-7-methoxy-6-(1H-tetrazol-5-yl)-imidazo[1,2-a]pyridin-2-yl]-phenyl-pyridin-2-yl-methanol] it was 8.00 to 9.00.
In turn, `CCn1c(C(O)(c2ccccc2)c2ccccn2)nc2nc(OC)c(-c3nnn[nH]3)cc21` (single isomer, unassigned) [Compound 40, [1-ethyl-5-methoxy-6-(1H-1,2,3,4-tetrazol-5-yl)-1H-imidazo[4,5-b]pyridin-2-yl](phenyl)(pyridin-2-yl)methanol] gave a negative logarithm of the IC50 (pIC50) in data set [1] of 8.00 to 9.00. In addition, in data set [2], the “CYP3A4 (in parentheses: lowest concentration causing at least 2-fold induction)” value is 5 µM and the “CYP3A4 (significant induction above 20% threshold)” value is 6.8 µM.
For the compound `CCc1c(C(O)(c2ccccc2)c2ccccc2)nc2cc(OC)c(-c3nnn[nH]3)cn12` [Compound 2, [3-Ethyl-7-methoxy-6-(1H-tetrazol-5-yl)-imidazo[1,2-a]pyridin-2-yl]-diphenyl-methanol], the negative logarithm of the IC50 (pIC50) in data set [1] was 8.00 to 9.00. In data set [2], the “CYP3A4 (in parentheses: lowest concentration causing at least 2-fold induction)” value was 5 µM and the “CYP3A4 (significant induction above 20% threshold)” value turned out to be 2.3 µM.
In turn, `CCc1c(C(O)(c2ccccc2)c2ccccc2)nc2cc(F)c(-c3nnn[nH]3)cn12` [Compound 3, [3-Ethyl-7-fluoro-6-(1H-tetrazol-5-yl)-imidazo[1,2-a]pyridin-2-yl]-diphenyl-methanol] gave a pIC50 in data set [1] of 7.00 to 8.00.
In data set [1], `CCc1c(C(O)(c2ccccc2)c2ccccc2)nc2ccc(-c3nnn[nH]3)cn12` [Compound 4, [3-Ethyl-6-(1 H-tetrazol-5-yl)-imidazo[1,2-a]pyridin-2-yl]-diphenyl-methanol] had a pIC50 of 7.00 to 8.00. In data set [2], the “CYP3A4 (in parentheses: lowest concentration causing at least 2-fold induction)” value was 50 µM and the “CYP3A4 (significant induction above 20% threshold)” value amounted to 2.2 µM.
`CCc1c(C(O)(c2ccccc2F)c2ccccc2F)nc2cc(Cl)c(-c3nnn[nH]3)cn12` [Compound 5, [7-Chloro-3-ethyl-6-(1H-tetrazol-5-yl)-imidazo[1,2-a]pyridin-2-yl]-bis-(2-fluoro-phenyl)-methanol] gave a negative logarithm of the IC50 (pIC50) in data set [1] of 7.00 to 8.00.
In data set [1], `CCc1c(C(O)(c2ccccc2F)c2ccccc2F)nc2cc(OC)c(-c3nnn[nH]3)cn12` [Compound 6, [3-Ethyl-7-methoxy-6-(1H-tetrazol-5-yl)-imidazo[1,2-a]pyridin-2-yl]-bis-(2-fluoro-phenyl)-methanol] had a pIC50 of 8.00 to 9.00.
Compound `CCc1c(C(O)(c2ccccc2)c2ccccc2)nc2cc(Cl)c(-c3nnn[nH]3)cn12` [Compound 9, [7-Chloro-3-ethyl-6-(1H-tetrazol-5-yl)-imidazo[1,2-a]pyridin-2-yl]-diphenyl-methanol] showed a negative-log IC50 (pIC50) in data set [1] of 8.00 to 9.00.
In the case of `CCc1c(C(O)(c2ccccc2F)c2ccccc2F)nn2cc(OC)c(-c3nnn[nH]3)cc12` [Compound 19, [3-Ethyl-6-methoxy-5-(1H-tetrazol-5-yl)-pyrazolo[1,5-a]pyridin-2-yl]-bis-(2-fluoro-phenyl)-methanol], the negative-log IC50 (pIC50) in data set [1] was 8.00 to 9.00.
`CCc1c(C(O)(c2ccccc2)c2ccccc2)nn2cc(OC)c(-c3nnn[nH]3)cc12` [Compound 22, [3-Ethyl-6-methoxy-5-(1H-tetrazol-5-yl)-pyrazolo[1,5-a]pyridin-2-yl]-diphenyl-methanol] showed a negative logarithm of the IC50 (pIC50) in data set [1] of 8.00 to 9.00.
On the same count and under the same terms, for `COc1nc2nc(C(O)(c3ccccc3)c3ccccc3)n(CCO)c2cc1-c1nnn[nH]1` [Compound 34, 2-[2-(hydroxy-diphenylmethyl)-5-methoxy-6-(1H-1,2,3,4-tetrazol-5-yl)-1H-imidazo[4,5-b]pyridin-1-yl]ethan-1-ol] the value was 7.00 to 8.00; for `CCn1c(C(O)(c2cccs2)c2cccs2)nc2nc(OC)c(-c3nnn[nH]3)cc21` [Compound 38, [1-ethyl-5-methoxy-6-(1H-1,2,3,4-tetrazol-5-yl)-1H-imidazo[4,5-b]pyridin-2-yl]bis(thiophen-2-yl)methanol], 7.00 to 8.00; for `CCn1c(C(O)(c2ccccc2F)c2ccccc2F)nc2nc(OC)c(-c3nnn[nH]3)cc21` [Compound 57, [1-ethyl-5-methoxy-6-(1H-1,2,3,4-tetrazol-5-yl)-1H-imidazo[4,5-b]pyridin-2-yl]bis(2-fluorophenyl)methanol], 9.00 to 11.00.
With `CCn1c(C(O)(c2ccccc2)c2ccccc2)nc2ncc(-c3nnn[nH]3)cc21` [Compound 60, [1-ethyl-6-(1H-1,2,3,4-tetrazol-5-yl)-1H-imidazo[4,5-b]pyridin-2-yl]diphenylmethanol], the negative-log IC50 (pIC50) in data set [1] was 5.00 to 7.00.
Take `CCn1c(C(O)(c2ccccc2)c2ccccc2)nc2nc(C)c(-c3nnn[nH]3)cc21` [Compound 62, [1-ethyl-5-methyl-6-(1H-1,2,3,4-tetrazol-5-yl)-1H-imidazo[4,5-b]pyridin-2-yl]diphenylmethanol]: the negative-log IC50 (pIC50) in data set [1] is 5.00 to 7.00.

The values above are taken from patent US20240009175A9, “TETRAZOLE DERIVATIVES” (Merck Patent GmbH, priority 2020, published 2024).
